Blank lines part the entries; values can stand above or below the compound they belong to. The source made the active and inactive calls.
Experiments:
[1] = Luminescence Cell-Based Dose Confirmation HTS to Identify Inhibitors of Platelet Dense Granule Release. [Related pubchem assays: 1663 (Primary HTS), 1678 (Summary of Project)]; assay type: functional
[2] = HEK-293T cell viability reduction – luminescence, B-cell screen hits, cytotoxicity control for BCR NF-kB inhibitor project, dose response (AID 489021); assay type: functional, cell-based;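 further: HEK-293T cells carrying an NF-kB luciferase reporter; cells exposed to compound for about 14 hours before viability readout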
[3] = biological target: Luciferin 4-monooxygenase (Photinus pyralis, UniProt P08659); experiment: inhibition of purified Photinus pyralis luciferase – biochemical, luminescence, dose response (AID 1891)
Sequence of Luciferin 4-monooxygenase (P08659 whole entry): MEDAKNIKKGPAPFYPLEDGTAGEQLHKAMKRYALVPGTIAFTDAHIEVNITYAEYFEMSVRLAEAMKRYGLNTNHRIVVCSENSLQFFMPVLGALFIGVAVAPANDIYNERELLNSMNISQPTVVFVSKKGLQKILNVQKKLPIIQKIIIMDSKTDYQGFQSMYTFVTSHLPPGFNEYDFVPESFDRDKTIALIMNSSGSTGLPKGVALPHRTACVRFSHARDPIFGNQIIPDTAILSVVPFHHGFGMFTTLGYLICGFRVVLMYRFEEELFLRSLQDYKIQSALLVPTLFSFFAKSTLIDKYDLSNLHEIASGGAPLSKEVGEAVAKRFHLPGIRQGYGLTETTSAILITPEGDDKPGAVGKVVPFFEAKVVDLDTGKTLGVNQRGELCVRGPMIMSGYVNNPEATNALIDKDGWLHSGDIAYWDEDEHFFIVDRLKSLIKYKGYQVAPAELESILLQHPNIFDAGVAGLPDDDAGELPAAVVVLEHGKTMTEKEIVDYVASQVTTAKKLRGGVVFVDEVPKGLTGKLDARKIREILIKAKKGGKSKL

[4] = biological target: Polyadenylate-binding protein 1 (Homo sapiens, UniProt P11940); experiment: blockers of PABP interaction with poly(A) – biochemical, fluorescence polarization, […] (AID 2014)
[5] = biological target: Eukaryotic translation initiation factor 4H (Homo sapiens, UniProt Q15056); experiment: eIF4H binding inhibition – biochemical, uHTS, fluorescence polarization, translation initiation inhibitor project, primary screen (AID 2012)
SUMO-activating enzyme [6] = biological target: T1, SUMO-activating enzyme (Homo sapiens, UniProt Q9UBT2); experiment: blockers of UBC9-mediated SUMO conjugation – biochemical, AlphaScreen, SUMOylation inhibitor project, confirmation (AID 2018); assay type: functional
T1 sequence (Q9UBE0 whole entry): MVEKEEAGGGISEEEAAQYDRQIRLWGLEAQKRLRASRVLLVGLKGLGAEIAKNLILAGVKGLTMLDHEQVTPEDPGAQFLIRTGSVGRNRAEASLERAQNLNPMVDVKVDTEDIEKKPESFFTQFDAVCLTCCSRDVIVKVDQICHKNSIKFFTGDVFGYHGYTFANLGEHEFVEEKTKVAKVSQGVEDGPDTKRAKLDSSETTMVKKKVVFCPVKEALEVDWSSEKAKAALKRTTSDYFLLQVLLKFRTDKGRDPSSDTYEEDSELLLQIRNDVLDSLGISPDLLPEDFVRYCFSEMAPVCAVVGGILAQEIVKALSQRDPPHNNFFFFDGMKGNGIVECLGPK
T1 sequence (Q9UBT2 whole entry): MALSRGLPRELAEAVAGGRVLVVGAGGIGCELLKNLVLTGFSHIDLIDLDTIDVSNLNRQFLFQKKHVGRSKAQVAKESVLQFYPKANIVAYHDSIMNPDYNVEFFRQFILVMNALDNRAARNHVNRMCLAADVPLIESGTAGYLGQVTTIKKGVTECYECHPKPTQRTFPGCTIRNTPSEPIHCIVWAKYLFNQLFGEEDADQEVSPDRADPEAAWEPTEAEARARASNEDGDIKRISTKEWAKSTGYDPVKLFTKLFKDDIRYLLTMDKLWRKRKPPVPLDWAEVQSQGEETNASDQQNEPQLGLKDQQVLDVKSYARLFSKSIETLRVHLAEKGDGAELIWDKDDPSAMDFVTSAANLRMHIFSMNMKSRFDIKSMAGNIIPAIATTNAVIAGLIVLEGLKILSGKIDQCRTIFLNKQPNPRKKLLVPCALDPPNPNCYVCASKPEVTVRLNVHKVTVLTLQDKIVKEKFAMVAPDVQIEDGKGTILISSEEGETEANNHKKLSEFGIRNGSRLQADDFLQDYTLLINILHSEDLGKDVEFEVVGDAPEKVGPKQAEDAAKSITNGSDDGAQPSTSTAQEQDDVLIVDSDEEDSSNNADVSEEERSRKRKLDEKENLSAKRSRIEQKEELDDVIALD

SUMO-activating enzyme [7] = biological target: T1, SUMO-activating enzyme; experiment: blockers of SAE1/SAE2–UBC9 SUMO transfer – biochemical, HTRF, uHTS, primary screen (AID 2006); assay type: protein-complex assay
[8] = biological target: T2, Heat shock factor protein 1 (Mus musculus, UniProt P38532); experiment: enhancement of HSF1-driven luciferase signal – cell-based, NIH3T3, luminescence, dose retest, confirmation (AID 435004); assay type: functional;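 further: stress induced by proteasome inhibitor MG132 added 30 min after compound; luciferase reporter driven by HSF1 response element in NIH3T3 cells; actives raise luminescence as potentiators of the MG132 stress response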
T2 sequence (P38532 whole entry): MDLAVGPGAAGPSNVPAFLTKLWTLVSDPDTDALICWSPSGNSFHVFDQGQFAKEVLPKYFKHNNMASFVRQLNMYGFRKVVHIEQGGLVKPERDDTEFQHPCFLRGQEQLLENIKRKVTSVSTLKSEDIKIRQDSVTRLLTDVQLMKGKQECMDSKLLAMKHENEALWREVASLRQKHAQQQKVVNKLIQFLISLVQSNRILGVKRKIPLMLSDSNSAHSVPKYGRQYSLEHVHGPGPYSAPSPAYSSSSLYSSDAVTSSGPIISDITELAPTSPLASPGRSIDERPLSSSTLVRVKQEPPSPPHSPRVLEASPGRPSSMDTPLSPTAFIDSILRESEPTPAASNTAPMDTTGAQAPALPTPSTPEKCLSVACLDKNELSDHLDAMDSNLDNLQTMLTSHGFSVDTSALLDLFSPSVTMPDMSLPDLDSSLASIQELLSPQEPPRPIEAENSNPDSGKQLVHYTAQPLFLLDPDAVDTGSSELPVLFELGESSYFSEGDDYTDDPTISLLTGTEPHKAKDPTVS

X-box-binding protein 1 = X-box-binding protein 1 (Homo sapiens, UniProt P17861); assay type: functional, Cricetulus griseus;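 further: confirmatory dose-response counter-screen serving a CHOP assay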
Sequence of X-box-binding protein 1 (P17861 whole entry): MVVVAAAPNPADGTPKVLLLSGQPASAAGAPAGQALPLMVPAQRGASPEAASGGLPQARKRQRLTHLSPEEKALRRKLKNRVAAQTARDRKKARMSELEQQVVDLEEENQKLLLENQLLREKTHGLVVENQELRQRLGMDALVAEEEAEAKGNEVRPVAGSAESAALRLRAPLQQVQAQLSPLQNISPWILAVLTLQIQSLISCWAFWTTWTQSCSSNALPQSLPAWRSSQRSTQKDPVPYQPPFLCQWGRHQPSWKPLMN

[9] = biological target: DNA damage-inducible transcript 3 protein (Mus musculus, UniProt P35639); assay type: functional, Cricetulus griseus
Sequence of DNA damage-inducible transcript 3 protein (P35639 whole entry): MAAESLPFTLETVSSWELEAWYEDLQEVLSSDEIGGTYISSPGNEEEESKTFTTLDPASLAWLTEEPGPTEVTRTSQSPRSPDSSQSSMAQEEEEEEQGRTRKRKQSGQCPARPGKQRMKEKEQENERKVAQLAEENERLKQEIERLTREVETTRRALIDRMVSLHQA

[10] = tested on: Streptococcus sp. 'group A'; experiment: Streptococcus pyogenes SK(-)GAS viability under kanamycin – luminescence, BacTiterGlo, confirmation, counter-screen for streptokinase expression inhibitor project, dose response (AID 1900); assay type: functional, organism-based
[11] = biological target: T3, Nucleotide-binding oligomerization domain-containing protein 2 (Homo sapiens, UniProt Q9HC29); experiment: PubChem AID 2334; assay type: functional
T3 sequence (Q9HC29 whole entry, the tested form may be a part): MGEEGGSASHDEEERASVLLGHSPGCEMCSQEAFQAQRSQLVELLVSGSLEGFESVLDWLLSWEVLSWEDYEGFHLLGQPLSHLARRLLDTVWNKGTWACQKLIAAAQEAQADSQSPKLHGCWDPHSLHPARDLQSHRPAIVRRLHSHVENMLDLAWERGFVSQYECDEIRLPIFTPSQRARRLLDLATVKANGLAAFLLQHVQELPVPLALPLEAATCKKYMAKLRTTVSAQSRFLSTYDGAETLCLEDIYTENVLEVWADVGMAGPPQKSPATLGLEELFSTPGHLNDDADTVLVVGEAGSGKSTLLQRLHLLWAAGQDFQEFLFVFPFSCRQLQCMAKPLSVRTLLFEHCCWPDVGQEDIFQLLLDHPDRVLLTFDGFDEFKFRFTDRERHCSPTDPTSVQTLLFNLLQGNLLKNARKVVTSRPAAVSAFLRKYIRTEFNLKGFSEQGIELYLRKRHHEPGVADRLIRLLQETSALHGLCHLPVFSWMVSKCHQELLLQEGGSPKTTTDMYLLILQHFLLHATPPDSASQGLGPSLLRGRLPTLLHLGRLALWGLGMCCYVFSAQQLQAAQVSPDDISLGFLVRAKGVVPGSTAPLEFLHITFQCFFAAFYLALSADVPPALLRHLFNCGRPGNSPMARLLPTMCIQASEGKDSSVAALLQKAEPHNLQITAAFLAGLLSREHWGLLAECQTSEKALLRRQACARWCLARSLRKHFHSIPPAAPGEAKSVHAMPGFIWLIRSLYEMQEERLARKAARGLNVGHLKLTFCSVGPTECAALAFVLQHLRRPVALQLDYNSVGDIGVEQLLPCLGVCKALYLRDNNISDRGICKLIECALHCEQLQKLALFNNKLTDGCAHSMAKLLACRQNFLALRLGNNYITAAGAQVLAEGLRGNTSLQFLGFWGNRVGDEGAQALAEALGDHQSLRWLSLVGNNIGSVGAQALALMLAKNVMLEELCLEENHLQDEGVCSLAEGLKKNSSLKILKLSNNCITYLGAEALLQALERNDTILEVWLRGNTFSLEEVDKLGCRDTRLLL

HEK293 [12] = experiment: NOD2 signaling inhibitors in MDP-stimulated cells, cell-based, uHTS, luminescence (AID 2001); assay type: functional; details: Homo sapiens
HEK293 [13] = experiment: cells; details: Homo sapiens
HEK293 [14] = experiment: cells; assay type: functional, cell-based; details: Homo sapiens
HEK293 [15] = experiment: cells; assay type: functional, cell-based; details: Homo sapiens; remark: listed apart in the source
Streptococcus = experiment: GAS UMAA2166 growth inhibition – luminescence, BacTiterGlo, counter-screen for streptokinase expression inhibitor project, dose response (AID 1915); assay type: functional, organism-based;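 further: potency for reduction of bacterial viability or growth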
Tumor necrosis factor = Tumor necrosis factor (Homo sapiens, UniProt P01375); experiment: analog potency on TNFa NF-kB signaling – cell-based, revised, SAR follow-up (AID 2337); assay type: functional
Sequence of Tumor necrosis factor (P01375 whole entry): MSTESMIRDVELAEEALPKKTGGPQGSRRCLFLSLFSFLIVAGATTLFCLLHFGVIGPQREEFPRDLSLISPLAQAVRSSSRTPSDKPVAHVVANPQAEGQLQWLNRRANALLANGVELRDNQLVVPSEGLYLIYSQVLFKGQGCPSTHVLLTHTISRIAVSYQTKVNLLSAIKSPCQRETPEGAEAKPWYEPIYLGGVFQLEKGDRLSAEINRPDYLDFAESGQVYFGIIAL

HEK293 [16] = experiment: inhibition of NOD1-driven NF-kB reporter – cell-based, luminescence, uHTS, primary screen (AID 1578); assay type: functional; details: Homo sapiens
HEK293 [17] = experiment: cells; assay type: functional, cell-based; details: Homo sapiens; remark: listed apart in the source
[18] = biological target: T4, Nucleotide-binding oligomerization domain-containing protein 1 (Homo sapiens, UniProt Q9Y239); experiment: blockers of NOD1 pathway activity – revised, SAR follow-up (AID 2333); assay type: functional
T4 sequence (Q9Y239 whole entry): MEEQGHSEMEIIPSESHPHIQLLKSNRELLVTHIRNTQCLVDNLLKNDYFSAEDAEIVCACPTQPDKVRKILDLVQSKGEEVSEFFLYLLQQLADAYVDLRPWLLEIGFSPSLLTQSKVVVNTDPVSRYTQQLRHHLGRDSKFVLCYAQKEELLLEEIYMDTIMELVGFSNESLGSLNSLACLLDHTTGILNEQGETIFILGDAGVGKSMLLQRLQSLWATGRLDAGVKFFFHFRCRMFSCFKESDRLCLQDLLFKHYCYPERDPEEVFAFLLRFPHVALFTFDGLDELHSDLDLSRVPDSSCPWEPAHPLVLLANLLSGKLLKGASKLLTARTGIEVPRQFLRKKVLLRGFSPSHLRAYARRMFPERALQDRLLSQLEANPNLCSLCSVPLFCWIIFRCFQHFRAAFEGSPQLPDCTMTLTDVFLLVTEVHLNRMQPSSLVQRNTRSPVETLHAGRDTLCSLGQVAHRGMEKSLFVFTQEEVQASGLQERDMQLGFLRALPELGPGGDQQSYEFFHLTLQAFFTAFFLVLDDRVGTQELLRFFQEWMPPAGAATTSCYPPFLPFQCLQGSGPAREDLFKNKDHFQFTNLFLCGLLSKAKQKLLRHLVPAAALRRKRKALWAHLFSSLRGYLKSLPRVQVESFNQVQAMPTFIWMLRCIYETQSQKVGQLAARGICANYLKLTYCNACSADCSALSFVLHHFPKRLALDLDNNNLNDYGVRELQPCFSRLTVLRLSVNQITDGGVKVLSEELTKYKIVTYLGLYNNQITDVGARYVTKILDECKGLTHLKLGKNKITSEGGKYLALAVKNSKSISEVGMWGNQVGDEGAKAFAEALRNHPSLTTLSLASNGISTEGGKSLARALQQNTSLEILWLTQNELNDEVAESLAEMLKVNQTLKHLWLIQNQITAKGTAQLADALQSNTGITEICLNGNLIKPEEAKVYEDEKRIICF

[19] = biological target: T3, Nucleotide-binding oligomerization domain-containing protein 2; experiment: inhibition of NOD2-driven NF-kB reporter – cell-based, luminescence, uHTS, HEK293 (AID 1566); assay type: functional
[20] = biological target: Mothers against decapentaplegic homolog 3 (Homo sapiens, UniProt P84022); experiment: blockers of Smad3 complex formation in lysate – cell lysate, secondary confirmation, chemiluminescent ELISA, HEK293 lysate, dose response (AID 1058); assay type: functional
Sequence of Mothers against decapentaplegic homolog 3 (P84022 whole entry): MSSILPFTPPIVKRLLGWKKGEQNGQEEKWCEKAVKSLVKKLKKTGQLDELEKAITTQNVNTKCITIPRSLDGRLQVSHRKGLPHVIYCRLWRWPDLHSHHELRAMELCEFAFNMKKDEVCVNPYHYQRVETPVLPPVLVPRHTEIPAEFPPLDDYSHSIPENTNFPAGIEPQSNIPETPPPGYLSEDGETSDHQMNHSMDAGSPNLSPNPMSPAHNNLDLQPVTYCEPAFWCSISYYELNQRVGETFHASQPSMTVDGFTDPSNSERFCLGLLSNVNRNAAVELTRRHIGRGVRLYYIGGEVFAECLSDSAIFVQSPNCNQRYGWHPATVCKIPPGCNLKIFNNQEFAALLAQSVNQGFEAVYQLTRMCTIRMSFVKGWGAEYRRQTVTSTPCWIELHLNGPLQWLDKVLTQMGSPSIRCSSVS

[21] = biological target: Transitional endoplasmic reticulum ATPase (Homo sapiens, UniProt P55072); experiment: p97 ATPase inhibitors, dose response, biochemical (AID 1534)
[22] = biological target: Transitional endoplasmic reticulum ATPase (Homo sapiens, UniProt P55072, C522A); experiment: C522A mutant p97 ATPase inhibitors, dose response, counter-screen for p97 inhibitor project, biochemical, luminescence (AID 1544)
Sequence of Transitional endoplasmic reticulum ATPase (Homo sapiens, UniProt P55072, C522A) (P55072 2-806 C522A limits assumed): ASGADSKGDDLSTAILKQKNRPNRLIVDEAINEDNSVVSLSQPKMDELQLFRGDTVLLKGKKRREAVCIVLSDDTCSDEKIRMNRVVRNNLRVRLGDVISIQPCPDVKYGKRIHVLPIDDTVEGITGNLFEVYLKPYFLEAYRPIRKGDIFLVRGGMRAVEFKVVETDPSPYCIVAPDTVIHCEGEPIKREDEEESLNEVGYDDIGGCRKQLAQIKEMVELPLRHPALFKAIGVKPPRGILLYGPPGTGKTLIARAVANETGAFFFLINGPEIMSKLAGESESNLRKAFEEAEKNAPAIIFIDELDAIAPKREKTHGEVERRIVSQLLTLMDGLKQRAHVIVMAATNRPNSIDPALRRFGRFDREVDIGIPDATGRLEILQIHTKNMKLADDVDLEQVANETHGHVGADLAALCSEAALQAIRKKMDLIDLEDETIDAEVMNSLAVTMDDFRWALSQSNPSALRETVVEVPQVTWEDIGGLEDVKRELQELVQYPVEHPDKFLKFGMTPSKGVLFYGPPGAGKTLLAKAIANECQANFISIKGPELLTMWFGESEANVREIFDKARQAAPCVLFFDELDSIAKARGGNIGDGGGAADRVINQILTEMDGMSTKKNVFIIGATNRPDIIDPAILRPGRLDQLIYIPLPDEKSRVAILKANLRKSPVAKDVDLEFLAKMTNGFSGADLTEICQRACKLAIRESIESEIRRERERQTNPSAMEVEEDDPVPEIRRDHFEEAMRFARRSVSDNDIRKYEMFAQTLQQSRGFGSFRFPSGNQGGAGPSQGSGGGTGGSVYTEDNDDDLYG

[23] = biological target: Eukaryotic translation initiation factor 4E (Mus musculus, UniProt P63073); experiment: blockers of eIF4G binding by eIF4E – biochemical, TR-FRET, dose response (AID 855); assay type: functional;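 further: potency for disrupting eIF4E binding to eIF4GI seen as loss of FRET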
Sequence of Eukaryotic translation initiation factor 4E (P63073 whole entry): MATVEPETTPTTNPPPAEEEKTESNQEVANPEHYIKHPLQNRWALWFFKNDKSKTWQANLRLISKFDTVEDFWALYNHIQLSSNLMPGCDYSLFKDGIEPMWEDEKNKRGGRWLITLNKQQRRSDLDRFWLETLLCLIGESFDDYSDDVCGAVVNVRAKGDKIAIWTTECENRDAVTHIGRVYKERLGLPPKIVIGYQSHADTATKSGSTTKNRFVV

Compound: CCCCn1c2c(c(=N)c3ccccc31)CCC2
EC50 [1]: 1.25 µM (active) | IC50 [2]: > 80 µM (inactive) | EC50 [3]: > 112 µM (not active) | IC50 [4]: 3.5 µM (active) | IC50 [5]: > 100 µM (inactive)

IC50 (SUMO-activating enzyme [6]): 20.9 µM (active) | IC50 (SUMO-activating enzyme [7]): 4.47 µM (active) | EC50 [8]: > 260 µM (inactive)
Compound: N=c1c(S(=O)(=O)c2ccc(Cl)cc2)cc2c(=O)n3ccccc3nc2n1Cc1ccco1

Absolute IC50 (XBP1) (X-box-binding protein 1): 10 µM
Compound: Cc1cc(C)c2nc(-c3ccccn3)cc(C(=O)Nc3cc(C)on3)c2c1
Absolute IC50 (CHOP) [9]: 10 µM

Compound: CCCCCCCn1c(=O)c(C(=O)Nc2cnccn2)c(O)c2ccccc21
EC50 [10]: 2.88 µM (active) | IC50 [11]: 8.05 µM (active) | IC50 (HEK293 [12]): 6.85 µM (active) | IC50 (HEK293 [13]): > 20 µM (inactive) | IC50 (HEK293 [14]): > 20 µM (inactive) | IC50 (HEK293 [15]): > 20 µM (inactive) | EC50 (Streptococcus): 6.65 µM (active) | IC50 (Tumor necrosis factor): 3.18 µM (active) | EC50 (HEK293 [16]): 6.35 µM (active) | IC50 (HEK293 [17]): > 20 µM (inactive) | IC50 [18]: 5.6 µM (active) | EC50 [19]: 7.83 µM (active)

IC50 [20]: < 1.25 µM (not active)
Compound: O=c1cc2oc3cc(O)c(O)cc3c(-c3ccccc3)c-2cc1O

Compound: CN(C)[C@@H]1C(O)=C(C(N)=O)C(=O)[C@@]2(O)C(O)=C3C(=O)c4c(O)cccc4[C@@](C)(O)[C@H]3[C@H](O)[C@@H]12 [OXYTETRACYCLINE]
IC50 [21]: > 50 µM (not active) | IC50 [22]: > 50 µM (not active) | IC50 [23]: 50 µM (inactive)
